Experimental data as given in PubChem BioAssay AID1645868 (Buhrlage Lab, Dana-Farber Cancer Institute and Novartis …, 2021).
Active and inactive are the calls of the source.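 How the source made its calls: active means maximal percent inhibition of the deubiquitinase OTUD3 of at least 30% across the tested doses; inactive means the rest.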

These molecules were tested against OTU domain-containing protein 3 (Homo sapiens) (UniProt Q5T2D3) (assay: Validation of screening hits, potency titration, in vitro enzymatic, OTU domain-containing protein 3 DUB inhibitors (AID 1645868)). Settings: purified OTUD3, ubiquitin-rhodamine cleavage fluorescence, 2 h.
Sequence of OTU domain-containing protein 3 (Homo sapiens) (Q5T2D3 whole entry, looked up, the tested form may be a part): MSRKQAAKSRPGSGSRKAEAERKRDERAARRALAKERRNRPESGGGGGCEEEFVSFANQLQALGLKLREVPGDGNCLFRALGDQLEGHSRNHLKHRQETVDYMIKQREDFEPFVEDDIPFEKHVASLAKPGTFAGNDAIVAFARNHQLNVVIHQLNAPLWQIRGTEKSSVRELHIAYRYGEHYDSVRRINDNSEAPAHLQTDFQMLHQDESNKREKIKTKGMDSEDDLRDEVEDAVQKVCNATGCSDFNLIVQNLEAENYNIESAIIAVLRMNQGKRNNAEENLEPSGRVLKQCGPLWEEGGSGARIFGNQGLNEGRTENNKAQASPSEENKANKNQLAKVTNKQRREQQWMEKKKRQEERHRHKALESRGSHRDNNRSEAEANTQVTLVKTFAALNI

Row | SMILES | IC50
1 | Cc1cc(N2CCN(c3ncccn3)CC2)nc2ccc(NC(=O)c3ccncc3)cc12 | 31 µM
2 | Cc1ccc(Nc2nc(Nc3cccc(F)c3)nc3nccnc23)c(C)c1 | > 50 µM (inactive)
3 | CCn1ccc2c(cc(C(=O)Nc3ccccc3F)n2C)c1=O | > 50 µM (inactive)
4 | O=C(Nc1cc(-c2cccnc2)no1)c1ccc(F)c(F)c1 | 31.4 µM
5 | COc1ccc(-c2cc3c(=O)n(CC(=O)NCCCN4CCCC4)ncn3n2)cc1 | > 50 µM (inactive)
6 | O=C(Nc1nnc2n1CCCS2)c1cc2ccccc2o1 | > 50 µM (inactive)
7 | O=c1ccc(-c2noc(Cc3cccc(Cl)c3)n2)c[nH]1 | > 50 µM (inactive)
8 | CC(C)N(C(=O)Cn1c(=O)[nH]c2ccccc21)c1ccccc1 | > 50 µM (inactive)
9 | CC(C(=O)NCc1ccc(F)cc1)n1cccc1C(=O)c1ccccc1 (stereo not drawn) | > 50 µM (inactive)
10 | O=C(NCc1ccc(Cl)cc1)Nc1cccc2ccccc12 | > 50 µM (inactive)
11 | Cn1nc(-c2nc(-c3ccccc3)no2)c2c1CCN(C(=O)C1CCCC1)C2 | > 50 µM (inactive)
12 | Cc1cc(O)c2c3c(c(O)c4c(c13)O[C@@H](C)C4(C)C)C(=O)C2=O | 31.9 µM
13 | Cc1ccc(Cn2nnc(-c3noc(-c4ccc[nH]4)n3)c2C)cc1 | > 50 µM (inactive)
14 | COc1cc2c(cc1OC)C(COc1ccccc1OC)N(C(=O)c1ccc3ccccc3c1)CC2 (stereo not drawn) | > 50 µM (inactive)
15 | Oc1sc(C=Nc2cc(Cl)ccc2Cl)c2ccccc12 | > 50 µM (inactive)
16 | COc1ccc(C(=O)N2CCCC3(C2)Nc2cccnc2NC3=NC2CCCC2)cn1 (stereo not drawn) | > 50 µM (inactive)
17 | COc1ccc2ncc3c(-c4ccc(C)cc4)nn(-c4ccc(F)cc4)c3c2c1 | > 50 µM (inactive)
18 | Cc1c(C)n(-c2ccccc2)c2ncn(CC(=O)NC(C)c3ccccc3)c(=O)c12 (stereo not drawn) | 21 µM
19 | CCn1ccc2c(cc(C(=O)Nc3cccc(OC)c3)n2C)c1=O | > 50 µM (inactive)
20 | CNC(=O)c1cc2nc(N(C)C)n(-c3ccccc3)c2s1 | > 50 µM (inactive)
21 | O=C(Cc1cccnc1)Nc1ccc(N2CCN(C3CCCCC3)C2=O)nc1 | > 50 µM (inactive)
22 | COc1cccc(CNC(=O)C2=Cc3cccc(OC)c3OC2)c1 | > 50 µM (inactive)
23 | CN1CCC(N(C)S(=O)(=O)c2ccc(NC(=O)c3cccc(OCc4ccccc4)c3)cc2)CC1 | > 50 µM (inactive)
24 | O=C(Cc1ccc(Cl)c(Cl)c1)OCC(=O)c1c[nH]c2ccccc12 | > 50 µM (inactive)

Row | SMILES | IC50
25 | CC[C@@]1(O)C[C@H](OC2CC(N(C)C)C(OC3CC(O)C(OC4CCC(=O)C(C)O4)C(C)O3)C(C)O2)c2c(cc3c(c2O)C(=O)c2c(O)ccc(O)c2C3=O)[C@H]1C(=O)OC (stereo partly drawn) | > 5 µM (inactive)
26 | CC(=O)c1cccc(NC(=O)c2ccc(N3CCCCC3)nn2)c1 | > 50 µM (inactive)
27 | O=C1NCCCC1Cc1ccc(-c2cccc(C(=O)N3CCc4ccccc4C3)c2)cc1 (stereo not drawn) | > 50 µM (inactive)
28 | Cc1cc(C(=O)Nc2ccc3nc(N4CCN(c5ncccn5)CC4)cc(C)c3c2)ccc1[N+](=O)[O-] | > 50 µM (inactive)
29 | CCOC(=O)c1cc2c(ccn2C)n1Cc1cccc2ccccc12 | > 50 µM (inactive)
30 | N=C1C(c2nc3ccccc3s2)=C(O)CN1Cc1ccc(F)cc1 | > 50 µM (inactive)
31 | Cc1c(CC(=O)Nc2nn[nH]n2)c(=O)oc2cc3c(cc12)CCC1(CCCCC1)O3 | > 50 µM (inactive)
32 | CO/C1=C\C(C)=C/[C@@H](C)[C@@H](O)[C@@H](C)C/C(C)=C/C=C/[C@H](OC)[C@@H]([C@@H](C)[C@@H](O)[C@H](C)[C@@]2(O)C[C@@H](OC(=O)/C=C/C(N)=O)[C@H](C)[C@@H](C(C)C)O2)OC1=O | > 50 µM (inactive)
33 | CCN(CC)c1nc(F)c2c(c1F)S(=O)(=O)CCN2Cc1cccnc1 | > 50 µM (inactive)
34 | N#Cc1c(-c2cccs2)cc(-c2cccs2)[nH]c1=O | > 50 µM (inactive)
35 | Cc1ccc2nc(NC(=O)C3CCCN3S(=O)(=O)c3ccc4c(c3)OCCO4)sc2c1 (stereo not drawn) | > 50 µM (inactive)
36 | Cn1nccc1C(=O)N1CCCCC1c1ncc(Cc2ccc(Cl)cc2)o1 (stereo not drawn) | > 50 µM (inactive)
37 | COc1ccc(CC(=O)Nc2cccc(-c3nc4ncccc4o3)c2)cc1OC | > 50 µM (inactive)
38 | O=C(Cn1c(=O)n(Cc2ccc3c(c2)OCO3)c(=O)c2ncccc21)c1ccc(Cl)cc1 | 33.9 µM
39 | CCN1CCCC1CN(Cc1cc2cc(OC)ccc2[nH]c1=O)C(=O)NCc1ccccc1 (stereo not drawn) | > 50 µM (inactive)
40 | O=S(c1ccc2ccccc2c1)c1cnns1 (stereo not drawn) | > 50 µM (inactive)
41 | COc1cc(O)c2c(O)c3c(cc2c1)CC(C)OC3=O (stereo not drawn) | > 50 µM (inactive)
42 | Cc1cccc(Cl)c1NC(=O)Nc1ccc(NC(=O)c2ccccc2O)cc1 | 47.8 µM
43 | Cc1ccc2cc(CNc3ccccc3)c(=O)n(CC(=O)Nc3ccccc3C)c2c1 | 26 µM
44 | COc1ccc(C2SCC(=O)Nc3c2c(=O)[nH]n3C2CCCCC2)cc1 (stereo not drawn) | 23.3 µM
45 | CC1CCCN1C(=O)c1ccn(-c2ccc3ccc(-c4cccnc4)cn23)n1 (stereo not drawn) | > 50 µM (inactive)
46 | Cc1cc(NC(=O)c2[nH]nc3c2CCc2ccccc2-3)no1 | 37.9 µM
47 | COc1cccc(/C=C/C(=O)Nc2ccc(N3CCOCC3)cc2)c1OC | > 50 µM (inactive)
48 | COc1ccc(Cn2cnc3c([nH]c4ccc(Br)cc43)c2=O)cc1 | > 50 µM (inactive)

Row | SMILES | IC50
49 | Cc1cccc(-n2cnc(C(=O)NCc3ccc(F)cc3)c2)n1 | > 50 µM (inactive)
50 | COc1ccc(NC(=O)c2sc(N3CCOCC3)nc2-c2ccccc2)c(OC)c1 | 43.5 µM
51 | CC1=C[C@@H](C)CC[C@H]2O[C@@H](C3=C(O)C(=O)C(C)=C4O[C@](O)(C=C43)[C@@H](C)C[C@H](C)C1)[C@H](C)[C@@H](O)[C@H]2C | 20 µM
52 | Cc1ccc(C(=O)Nc2ccc3c(c2)C(=O)N(C)c2ccccc2O3)cc1C | > 50 µM (inactive)
53 | O=C(NCc1ccccc1)Nc1cccc2ccccc12 | 40.3 µM
54 | COc1ccc(-c2cc3nc([C@H](C)NC(=O)Cc4cccc(F)c4)nn3cn2)cc1 | 15.8 µM
55 | Cc1ccc(Cn2c(=O)n(CCC(=O)NCCc3ccccc3)c(=O)c3ccccc32)cc1 | 18.6 µM
56 | COc1ccc(NC(=O)C2C3C=CC4(O3)C2C(=O)N(CCc2ccccc2)C4C(=O)NC2CCCCC2)cc1 (stereo not drawn) | 26.6 µM
57 | COc1cccc(-n2nnc(C(=O)Nc3ccc(C)c(C)c3)c2C)c1 | > 50 µM (inactive)
58 | CN(C)C(=O)CSc1nnc(-c2cccc(Cl)c2)n1-c1ccc(Cl)c(C(F)(F)F)c1 | > 50 µM (inactive)
59 | O=[N+]([O-])c1ccc2c(c1)nc1n2CCN(Cc2ccco2)C1 | > 50 µM (inactive)
60 | Cc1ccc(S(=O)(=O)Nc2ccccc2SCCS(=O)(=O)c2ccc(Cl)cc2)cc1 | > 50 µM (inactive)
61 | CC(=O)Nc1ccc(Cc2nc(-c3ccc4c(c3)nc(C)c(=O)n4C3CCCC3)no2)cc1 | > 50 µM (inactive)
62 | Cn1c2ccccc2c(=O)c2c(=O)n(Cc3ccccc3)c(-c3ccccc3F)nc21 | 0.33 µM
63 | CC(C)=CCCC1(C)OC2=C(C(=O)c3cc(O)cc(O)c3C2=O)[C@H]2C=C(C)CC[C@H]21 (stereo partly drawn) | > 50 µM (inactive)
64 | Nc1ccccc1SC(CC(=O)c1ccc(Cl)cc1)c1ccsc1 (stereo not drawn) | > 50 µM (inactive)
65 | Cc1nn(Cc2ccccc2)c(C)c1C(=O)NC1CCCc2ccccc21 (stereo not drawn) | > 50 µM (inactive)
66 | Cc1ccc2oc(=O)c(S(=O)(=O)N3CCCCC3)cc2c1 | 43.1 µM
67 | Cc1ccc(CSC2=NS(=O)(=O)c3ccccc3N2)cc1 | > 50 µM (inactive)
68 | Cc1ccc(NC(=O)c2ccc(N3CCOCC3)nn2)cc1F | > 50 µM (inactive)
69 | CCN(CC)C(=O)c1sc(NC(=O)/C=C/c2c(F)cccc2Cl)c(C#N)c1C | > 50 µM (inactive)
70 | O=C(NC1(O)C(=O)c2ccccc2C1=O)c1cccc2c1-c1ccccc1C2=O | 35.1 µM
71 | Cn1c2ccccc2c2ncn(Cc3ccc(F)cc3)c(=O)c21 | > 50 µM (inactive)
72 | COc1ccc(-c2nc(C)c(C(=O)NCc3ccc(S(N)(=O)=O)cc3)s2)cc1 | > 50 µM (inactive)

Row | SMILES | IC50
73 | CC1CS(=O)(=O)N(c2ccc(C(=O)Nc3ccc4c(c3)OCCO4)cc2)C1=O (stereo not drawn) | 28.5 µM
74 | Cc1ccc(C)c(CSC2=NCCN2C(=O)c2ccco2)c1 | > 50 µM (inactive)
75 | CN1C(=O)[C@@]23C[C@]4([C@@]56C[C@]78SS[C@](CO)(C(=O)N7[C@@H]5Nc5ccccc56)N(C)C8=O)c5ccccc5N[C@@H]4N2C(=O)[C@]1(CO)SS3 | > 50 µM (inactive)
76 | COc1ccccc1NC(=O)Cn1cc(C(=O)c2ccc(C)cc2)c(=O)c2cc(Cl)ccc21 | 23.9 µM
77 | COc1ccc(C)cc1NC(=O)C(NS(=O)(=O)c1ccc2c(c1)CCN2C(C)=O)C(C)C (stereo not drawn) | > 50 µM (inactive)
78 | CCn1c(SCc2nc(N)c3ccccc3n2)nc2ccccc21 | > 50 µM (inactive)
79 | COc1cc2c(c(OCC(=O)Nc3ccc4c(c3)OCCO4)c1)C(=O)O[C@@H](C)CCCC(=O)CCCCC2 | 48.5 µM
80 | CC(=O)Nc1cc(-c2cccc(O)c2)cn2c(-c3cnn(C)c3)cnc12 | > 50 µM (inactive)
81 | Cc1cc(C(=O)Nc2ccc3c(c2)OCCO3)no1 | > 50 µM (inactive)
82 | CC1(C(=O)NCc2ccccc2)Cn2c(cc3ccccc32)C(=O)N1Cc1ccccc1 (stereo not drawn) | > 50 µM (inactive)
83 | CC(C)CC1NC(=O)C2CCCN2C1=O (stereo not drawn) | > 50 µM (inactive)
84 | O=C(CCCCn1c(=O)c2ccccc2n(Cc2ccccc2F)c1=O)NCCc1ccccc1 | 17 µM
85 | Cc1ccc2[nH]c(=O)c(CN(CC3COCCO3)S(=O)(=O)c3ccc(F)cc3)cc2c1 (stereo not drawn) | 18.9 µM
86 | Cc1ccc(-n2nnc(C(=O)NC3CCCCC3)c2N)cc1 | > 50 µM (inactive)
87 | COc1cccc(Cn2nc3n(CC(C)C)c(=O)c4ccc(C(=O)NCC(C)C)cc4n3c2=O)c1 | 10.2 µM
88 | CC(=O)N1CCc2cc(CNC(=O)Nc3cc(C)ccc3C)ccc21 | > 50 µM (inactive)
89 | COc1ccc(CC(NC(C)=O)C(=O)NC2CCN(c3c(Cc4ccccc4)c(C)nc4ncnn34)CC2)cc1OC (stereo not drawn) | > 50 µM (inactive)
90 | COc1ccc(-c2nc(Cn3nnc(C(=O)Nc4ccc(C)cc4C)c3N)c(C)o2)cc1 | > 50 µM (inactive)
91 | Cc1nc(CN2CCn3c(Cn4cccn4)cnc3C2C)cs1 (stereo not drawn) | > 50 µM (inactive)
92 | Cc1c(-c2nsc(NC(=O)c3ccc(Cl)cc3)n2)nnn1-c1ccccc1F | 18.9 µM
93 | CCOc1ccccc1NC(=O)COc1cc(OC)ccc1C(=O)c1ccccc1 | > 5 µM (inactive)
